What was measured:
Test in all cases: Test B pre-/postemergence
Assay type in all cases: in vivo
Set-up in all cases: key: 0 is no effect; 10 is complete control
corn (Zea mays) = system: corn (Zea mays)
Summary of the method: (§1)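 Response scores run from 0, meaning no effect, to 10, meaning complete control, assigned by eye relative to controls twelve to sixteen days after spraying. Treatment was both preemergence on planted seed and postemergence on plants at the 1- to 4-leaf stage.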

[1] = system: broadleaf signalgrass (Brachiaria decumbens)
Summary of the method: as §1

[2] = system: pigweed (Amaranthus retroflexus)
Summary of the method: as §1

[3] = system: sugar beet (Beta vulgaris)
Summary of the method: as §1

[4] = system: wheat (Triticum aestivum)
Summary of the method: as §1

[5] = system: blackgrass (Alopecurus myosuroides)
Summary of the method: as §1

[6] = system: velvetleaf (Abutilon theophrasti)
Summary of the method: as §1

[7] = system: momingglory (Ipomoea hederacea)
Summary of the method: as §1

[8] = system: cocklebur (Xanthium strumarium)
Summary of the method: as §1

[9] = system: giant foxtail (Setaria faberii)
Summary of the method: as §1

[10] = system: purple nutsedge (Cyperus rotundus)
Summary of the method: as §1

soybean (Glycine max) = system: soybean (Glycine max)
Summary of the method: as §1

[11] = system: crabgrass (Digitaria sanguinalis)
Summary of the method: as §1

wild oat (Avena fatua) = system: wild oat (Avena fatua)
Summary of the method: as §1

[12] = Preemergence, Rate 62 g/ha, scale of 0 to 10

SMILES: Cc1cnc(-n2cnc(C(F)(F)F)c2)nc1C(=O)c1cccc(OC(F)(F)F)c1 [Compound 63]
- Plant response rating, Corn (corn (Zea mays); [12]): 0
- Corn plant response rating (corn (Zea mays); Rate 62 g/ha, Postemergence): 0
- Corn plant response rating (corn (Zea mays); Rate 125 g/ha, Postemergence): 2
- Plant response rating, Corn (corn (Zea mays); Rate 125 g/ha, Preemergence): 1
- Plant response rating, Corn (corn (Zea mays); Rate 250 g/ha, Postemergence): 2
- Plant response rating, Corn (corn (Zea mays); Rate 250 g/ha, Preemergence): 1
- Plant response rating, Corn (corn (Zea mays); Rate 500 g/ha, Postemergence): 2
- Plant response rating, Corn (corn (Zea mays); Rate 500 g/ha, Preemergence): 2
- B. signalgrass plant response rating ([1]; Rate 62 g/ha, Postemergence): 4
- B. signalgrass plant response rating ([1]; Rate 62 g/ha, Preemergence): 4
- B. signalgrass plant response rating ([1]; Rate 125 g/ha, Postemergence): 3
- Plant response rating, B. signalgrass ([1]; Rate 125 g/ha, Preemergence): 7
- Plant response rating, B. signalgrass ([1]; Rate 250 g/ha, Postemergence): 4
- Plant response rating, B. signalgrass ([1]; Rate 250 g/ha, Preemergence): 8
- Plant response rating, B. signalgrass ([1]; Rate 500 g/ha, Postemergence): 5
- Plant response rating, B. signalgrass ([1]; Rate 500 g/ha, Preemergence): 9
- Plant response rating, Redroot pigweed [2, 12]: 8
- Redroot pigweed plant response rating ([2]; Rate 62 g/ha, Postemergence): 8
- Redroot pigweed plant response rating ([2]; Rate 125 g/ha, Postemergence): 9
- Plant response rating, Redroot pigweed ([2]; Rate 125 g/ha, Preemergence): 9
- Plant response rating, Redroot pigweed ([2]; Rate 250 g/ha, Postemergence): 9
- Plant response rating, Redroot pigweed ([2]; Rate 250 g/ha, Preemergence): 10
- Plant response rating, Redroot pigweed ([2]; Rate 500 g/ha, Postemergence): 9
- Plant response rating, Redroot pigweed ([2]; Rate 500 g/ha, Preemergence): 10
- Plant response rating, Sugarbeets [3, 12]: 10
- Sugarbeets plant response rating ([3]; Rate 62 g/ha, Postemergence): 10
- Sugarbeets plant response rating ([3]; Rate 125 g/ha, Postemergence): 9
- Plant response rating, Sugarbeets ([3]; Rate 125 g/ha, Preemergence): 10
- Plant response rating, Sugarbeets ([3]; Rate 250 g/ha, Postemergence): 9
- Plant response rating, Sugarbeets ([3]; Rate 250 g/ha, Preemergence): 10
- Plant response rating, Sugarbeets ([3]; Rate 500 g/ha, Postemergence): 9
- Plant response rating, Sugarbeets ([3]; Rate 500 g/ha, Preemergence): 10
- Plant response rating, Wheat [4, 12]: 2
- Wheat plant response rating ([4]; Rate 62 g/ha, Postemergence): 2
- Wheat plant response rating ([4]; Rate 125 g/ha, Postemergence): 2
- Plant response rating, Wheat ([4]; Rate 125 g/ha, Preemergence): 2
- Plant response rating, Wheat ([4]; Rate 250 g/ha, Postemergence): 2
- Plant response rating, Wheat ([4]; Rate 250 g/ha, Preemergence): 3
- Plant response rating, Wheat ([4]; Rate 500 g/ha, Postemergence): 2
- Plant response rating, Wheat ([4]; Rate 500 g/ha, Preemergence): 4
- Plant response rating, Blackgrass [5, 12]: 2
- Blackgrass plant response rating ([5]; Rate 62 g/ha, Postemergence): 2
- Blackgrass plant response rating ([5]; Rate 125 g/ha, Postemergence): 3
- Plant response rating, Blackgrass ([5]; Rate 125 g/ha, Preemergence): 3
- Plant response rating, Blackgrass ([5]; Rate 250 g/ha, Postemergence): 3
- Plant response rating, Blackgrass ([5]; Rate 250 g/ha, Preemergence): 8
- Plant response rating, Blackgrass ([5]; Rate 500 g/ha, Postemergence): 6
- Plant response rating, Blackgrass ([5]; Rate 500 g/ha, Preemergence): 9
- Plant response rating, Velvetleaf [6, 12]: 2
- Velvetleaf plant response rating ([6]; Rate 62 g/ha, Postemergence): 2
- Velvetleaf plant response rating ([6]; Rate 125 g/ha, Postemergence): 8
- Plant response rating, Velvetleaf ([6]; Rate 125 g/ha, Preemergence): 2
- Plant response rating, Velvetleaf ([6]; Rate 250 g/ha, Postemergence): 8
- Plant response rating, Velvetleaf ([6]; Rate 250 g/ha, Preemergence): 10
- Plant response rating, Velvetleaf ([6]; Rate 500 g/ha, Postemergence): 8
- Plant response rating, Velvetleaf ([6]; Rate 500 g/ha, Preemergence): 10
- Plant response rating, Morningglory [7, 12]: 2
- Morningglory plant response rating ([7]; Rate 62 g/ha, Postemergence): 2
- Morningglory plant response rating ([7]; Rate 125 g/ha, Postemergence): 4
- Plant response rating, Morningglory ([7]; Rate 125 g/ha, Preemergence): 7
- Plant response rating, Morningglory ([7]; Rate 250 g/ha, Postemergence): 10
- Plant response rating, Morningglory ([7]; Rate 250 g/ha, Preemergence): 10
- Plant response rating, Morningglory ([7]; Rate 500 g/ha, Postemergence): 10
- Plant response rating, Morningglory ([7]; Rate 500 g/ha, Preemergence): 10
- Plant response rating, Cocklebur [8, 12]: 1
- Cocklebur plant response rating ([8]; Rate 62 g/ha, Postemergence): 1
- Cocklebur plant response rating ([8]; Rate 125 g/ha, Postemergence): 3
- Plant response rating, Cocklebur ([8]; Rate 500 g/ha, Postemergence): 8
- Plant response rating, Cocklebur ([8]; Rate 500 g/ha, Preemergence): 1
- Plant response rating, Giant foxtail [9, 12]: 2
- Giant foxtail plant response rating ([9]; Rate 62 g/ha, Postemergence): 2
- Giant foxtail plant response rating ([9]; Rate 125 g/ha, Postemergence): 2
- Plant response rating, Giant foxtail ([9]; Rate 125 g/ha, Preemergence): 3
- Plant response rating, Giant foxtail ([9]; Rate 250 g/ha, Postemergence): 3
- Plant response rating, Giant foxtail ([9]; Rate 250 g/ha, Preemergence): 6
- Plant response rating, Giant foxtail ([9]; Rate 500 g/ha, Postemergence): 3
- Plant response rating, Giant foxtail ([9]; Rate 500 g/ha, Preemergence): 8
- Plant response rating, Nutsedge [10, 12]: 0
- Nutsedge plant response rating ([10]; Rate 62 g/ha, Postemergence): 0
- Plant response rating, Nutsedge ([10]; Rate 125 g/ha, Preemergence): 0
- Plant response rating, Nutsedge ([10]; Rate 250 g/ha, Postemergence): 0
- Plant response rating, Nutsedge ([10]; Rate 500 g/ha, Preemergence): 0
- Plant response rating, Soybean (soybean (Glycine max); [12]): 0
- Soybean plant response rating (soybean (Glycine max); Rate 62 g/ha, Postemergence): 0
- Soybean plant response rating (soybean (Glycine max); Rate 125 g/ha, Postemergence): 2
- Plant response rating, Soybean (soybean (Glycine max); Rate 125 g/ha, Preemergence): 0
- Plant response rating, Soybean (soybean (Glycine max); Rate 250 g/ha, Postemergence): 2
- Plant response rating, Soybean (soybean (Glycine max); Rate 250 g/ha, Preemergence): 0
- Plant response rating, Soybean (soybean (Glycine max); Rate 500 g/ha, Postemergence): 2
- Plant response rating, Soybean (soybean (Glycine max); Rate 500 g/ha, Preemergence): 0
- Plant response rating, Crabgrass [11, 12]: 3
- Crabgrass plant response rating ([11]; Rate 62 g/ha, Postemergence): 3
- Crabgrass plant response rating ([11]; Rate 125 g/ha, Postemergence): 3
- Plant response rating, Crabgrass ([11]; Rate 125 g/ha, Preemergence): 6
- Plant response rating, Crabgrass ([11]; Rate 250 g/ha, Postemergence): 4
- Plant response rating, Crabgrass ([11]; Rate 250 g/ha, Preemergence): 8
- Plant response rating, Crabgrass ([11]; Rate 500 g/ha, Postemergence): 6
- Plant response rating, Crabgrass ([11]; Rate 500 g/ha, Preemergence): 9
- Plant response rating, Wild oats (wild oat (Avena fatua); [12]): 3
- Wild oats plant response rating (wild oat (Avena fatua); Rate 62 g/ha, Postemergence): 3
- Wild oats plant response rating (wild oat (Avena fatua); Rate 125 g/ha, Postemergence): 2
- Plant response rating, Wild oats (wild oat (Avena fatua); Rate 125 g/ha, Preemergence): 3
- Plant response rating, Wild oats (wild oat (Avena fatua); Rate 250 g/ha, Postemergence): 2
- Plant response rating, Wild oats (wild oat (Avena fatua); Rate 250 g/ha, Preemergence): 5
- Plant response rating, Wild oats (wild oat (Avena fatua); Rate 500 g/ha, Postemergence): 2
- Plant response rating, Wild oats (wild oat (Avena fatua); Rate 500 g/ha, Preemergence): 8

From patent publication US6525001B1, “Substituted pyrimidine and pyridine herbicides” (Mid-American Commercialization Corporation, priority 1997, dated 2003)
